Patent US20020040027A1, “Method for the prevention of the reinfestation of warm-blooded animals by ectoparasites” (priority 1996, published 2002)

Experiments:
Amblyomma hebraeum = test: Tick control by subcutaneous administration of the active ingredient to the host animal (chicks); assay type: in vivo; settings: subcutaneously injected dose of 3 mg/kg of body weight, treated vs untreated chicks; for % reduction nymphs: nymphs moulted from collected larvae; for % reduction larvae: replete larvae
Experimental: Tick control by subcutaneous administration of the active ingredient to the host animal
13 day-old chicks of a fattened breed are infected with about 200 larvae of the tick species Amblyomma hebraeum and placed in pairs in cages. After three days, the chicks are injected subcutaneously with the active ingredient in an aqueous suspension. Within 2 to 6 days of the treatment, i.e. 5 to 9 days after infection, the replete tick larvae fall from the chicks can be collected and counted. The activity of the test compounds is calculated on the basis of the number of replete larvae on treated and untreated chicks in accordance with the formula [formula]
where Ct is the average number of larvae from treated chicks and Cu is the average number of larvae from untreated chicks.
In order to determine this type of activity, the replete larvae are kept, separated into treatment groups, in an incubator until all the larvae collected from untreated chicks have moulted. The activity is calculated using the above mentioned formula, with the average number of nymphs being used instead of the average number of larvae.
Reduction of more than + 80 % can be regarded as systemic action.

[1] = tested on: cat fleas [Ctenocephalides felis]; test: Flea control by oral administration of the active ingredient to the host animal (cats); assay type: in vivo; settings: cats infected with 100 cat fleas, treated orally on day 0 with 50 mg/kg of body weight (capsule); after 45 days
Experimental: Flea control by oral administration of the active ingredient to the host animal 20 cats with the proven ability permanently to maintain a flea population are divided into 6 groups: 5 groups each being composed of 3 or 4 animals and a sixth group, which serves as the control group, being composed of 2 animals. Each of the cats is infected with 100 cat fleas [Ctenocephalides felis]. The cats of the 5 groups are treated orally on day 0 with 50 mg of active ingredient per kg of body weight. The active ingredient is administered in the form of a capsule. The control group remains untreated. […] The eggs are counted and placed on a medium suitable for the growth of larvae and incubated. The number of pupae and fully grown fleas that develop is determined.

SMILES: CCC1OCC(C)(COc2ccc(Oc3cccc(F)c3)cc2)O1 (stereo not shown) [compound 1, 2-ethyl-4-[4-(3-fluorophenoxy)-phenoxymethyl]-4-methyl-1,3-dioxolane]
- % reduction nymphs (Amblyomma hebraeum): 83%
- % reduction larvae (Amblyomma hebraeum): 83%

SMILES: CC1(C)OCC(COc2ccc(Oc3cccc(F)c3)cc2)O1 (stereo not shown) [2-dimethyl-4-[4-(3-fluorophenoxy)-phenoxymethyl]-1,3-dioxolane]
- inhibition of the development of fleas [1]: 100%

SMILES: CC(C)C1OCC(COc2ccc(Oc3cc(F)cc(F)c3)cc2)O1 (stereo not shown) [4-[4-(3,5-difluorophenoxy)-phenoxymethyl]-2-isopropyl-1,3-dioxolane]
- inhibition of the development of fleas [1]: 100%

SMILES: CCC1OCC(COc2ccc(Oc3cccc(F)c3)cc2)O1 (stereo not shown) [compound 3, 2-ethyl-4-[4-(3-fluorophenoxy)-phenoxymethyl]-1,3-dioxolane]
- % reduction nymphs (Amblyomma hebraeum): 80%
- % reduction larvae (Amblyomma hebraeum): 78%
- inhibition of the development of fleas [1]: 100%

SMILES: c1ccc(Oc2ccc(OCC3COC(C4CC4)O3)cc2)cc1 (stereo not shown) [compound 2, 2-cyclopropyl-4-[4-(phenoxy)-phenoxymethyl]-1,3-dioxolane]
- % reduction nymphs (Amblyomma hebraeum): 83%
- % reduction larvae (Amblyomma hebraeum): 82%

SMILES: CC1(C)OCC(COc2ccc(Oc3cc(F)cc(F)c3)cc2)O1 (stereo not shown) [2-dimethyl-4-[4-(3,5-difluorophenoxy)-phenoxymethyl]-1,3-dioxolane]
- inhibition of the development of fleas [1]: 100%
